What is called IC50 is the concentration that inhibits the measured activity by half.

Some results are limits rather than exact numbers.

Our source for the IC50 and Activity values is ChEMBL document CHEMBL4304778 (Eur J Med Chem, 2019).

In assay [1] the test system is HepG2. The assay is described as follows: Antitumor activity against human HepG2 cells by MTT assay. The assay is classed as functional, cell-based. In general terms: Tetrazolium assays rely on reduction of a dye to a coloured formazan, in cell work by metabolically active cells.
A further assay deals with PC-3. As to the kind of experiment: Antitumor activity against human PC3 cells by MTT assay. In kind it is functional, cell-based.
In another assay the test system is MCF7. The assay is described as follows: Antitumor activity against human MCF7 cells by MTT assay. The assay is classed as functional, cell-based.
Assay [2] addresses Vascular endothelial growth factor receptor 3 (Homo sapiens, UniProt P35916). The assay is described as follows: Inhibition of VEGFR3 (unknown origin).
In a further assay the test system is Hep 3B2. The assay is described as follows: Induction of apoptosis in human Hep3B cells relative to control. The assay is classed as functional.
Assay [3] relates to HepG2. The assay is described as follows: Induction of apoptosis in human HepG2 cells relative to control. In kind it is functional.
The nature of assay [4]: Induction of apoptosis in human PLC5 cells relative to control. In kind it is functional.
In assay [5] the target is Signal transducer and activator of transcription 3 (Homo sapiens) (UniProt P40763). The assay is described as follows: Activation of STAT3 phosphorylation at Y705 residue in human Huh7 cells relative to control. In kind it is cell-based.
The subject of assay [6] is HepG2. As to the kind of experiment: Cytotoxicity against human HepG2 cells after 24 hrs by MTT assay. The assay is classed as functional, cell-based. Particulars: HepG2, 24 h.
For a further assay, the system named is SMMC-7721. As to the kind of experiment: Cytotoxicity against human SMMC7721 cells after 24 hrs by MTT assay. In kind it is functional, cell-based. The conditions noted are these: SMMC-7721, 24 h.
The target in assay [7] is Vascular endothelial growth factor receptor 1 (Homo sapiens, UniProt P17948). The assay is described as follows: Inhibition of VEGFR1 (unknown origin).
The test system of another assay is M21. The assay is described as follows: Antiproliferative activity against human M21 cells bt MTT assay. The assay is classed as functional, cell-based.
Another assay has as its system PLC. The assay is described as follows: Cytotoxicity against human PLC cells. The assay is classed as functional, cell-based.

Chain of Signal transducer and activator of transcription 3 (Homo sapiens) (P40763 whole entry): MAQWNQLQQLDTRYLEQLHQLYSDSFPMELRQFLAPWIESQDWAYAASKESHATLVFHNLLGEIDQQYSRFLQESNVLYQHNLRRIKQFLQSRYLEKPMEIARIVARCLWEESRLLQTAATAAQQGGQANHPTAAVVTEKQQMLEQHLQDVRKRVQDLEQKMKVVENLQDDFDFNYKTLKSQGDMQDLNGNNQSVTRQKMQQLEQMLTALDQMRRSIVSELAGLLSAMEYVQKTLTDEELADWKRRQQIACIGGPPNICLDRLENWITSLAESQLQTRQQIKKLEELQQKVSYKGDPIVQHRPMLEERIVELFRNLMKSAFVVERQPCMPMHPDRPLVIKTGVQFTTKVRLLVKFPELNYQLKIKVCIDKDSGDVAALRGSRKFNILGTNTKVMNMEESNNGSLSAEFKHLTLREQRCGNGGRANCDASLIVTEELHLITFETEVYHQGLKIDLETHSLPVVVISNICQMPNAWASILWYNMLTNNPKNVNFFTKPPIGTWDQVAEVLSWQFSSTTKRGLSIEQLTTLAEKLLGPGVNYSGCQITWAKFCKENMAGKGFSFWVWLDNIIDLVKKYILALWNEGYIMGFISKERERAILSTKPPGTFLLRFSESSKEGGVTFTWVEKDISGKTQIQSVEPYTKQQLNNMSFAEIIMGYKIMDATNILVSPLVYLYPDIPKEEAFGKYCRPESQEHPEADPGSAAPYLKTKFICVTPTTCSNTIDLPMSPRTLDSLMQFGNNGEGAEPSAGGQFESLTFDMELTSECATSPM
Chain of Vascular endothelial growth factor receptor 3 (P35916 whole entry): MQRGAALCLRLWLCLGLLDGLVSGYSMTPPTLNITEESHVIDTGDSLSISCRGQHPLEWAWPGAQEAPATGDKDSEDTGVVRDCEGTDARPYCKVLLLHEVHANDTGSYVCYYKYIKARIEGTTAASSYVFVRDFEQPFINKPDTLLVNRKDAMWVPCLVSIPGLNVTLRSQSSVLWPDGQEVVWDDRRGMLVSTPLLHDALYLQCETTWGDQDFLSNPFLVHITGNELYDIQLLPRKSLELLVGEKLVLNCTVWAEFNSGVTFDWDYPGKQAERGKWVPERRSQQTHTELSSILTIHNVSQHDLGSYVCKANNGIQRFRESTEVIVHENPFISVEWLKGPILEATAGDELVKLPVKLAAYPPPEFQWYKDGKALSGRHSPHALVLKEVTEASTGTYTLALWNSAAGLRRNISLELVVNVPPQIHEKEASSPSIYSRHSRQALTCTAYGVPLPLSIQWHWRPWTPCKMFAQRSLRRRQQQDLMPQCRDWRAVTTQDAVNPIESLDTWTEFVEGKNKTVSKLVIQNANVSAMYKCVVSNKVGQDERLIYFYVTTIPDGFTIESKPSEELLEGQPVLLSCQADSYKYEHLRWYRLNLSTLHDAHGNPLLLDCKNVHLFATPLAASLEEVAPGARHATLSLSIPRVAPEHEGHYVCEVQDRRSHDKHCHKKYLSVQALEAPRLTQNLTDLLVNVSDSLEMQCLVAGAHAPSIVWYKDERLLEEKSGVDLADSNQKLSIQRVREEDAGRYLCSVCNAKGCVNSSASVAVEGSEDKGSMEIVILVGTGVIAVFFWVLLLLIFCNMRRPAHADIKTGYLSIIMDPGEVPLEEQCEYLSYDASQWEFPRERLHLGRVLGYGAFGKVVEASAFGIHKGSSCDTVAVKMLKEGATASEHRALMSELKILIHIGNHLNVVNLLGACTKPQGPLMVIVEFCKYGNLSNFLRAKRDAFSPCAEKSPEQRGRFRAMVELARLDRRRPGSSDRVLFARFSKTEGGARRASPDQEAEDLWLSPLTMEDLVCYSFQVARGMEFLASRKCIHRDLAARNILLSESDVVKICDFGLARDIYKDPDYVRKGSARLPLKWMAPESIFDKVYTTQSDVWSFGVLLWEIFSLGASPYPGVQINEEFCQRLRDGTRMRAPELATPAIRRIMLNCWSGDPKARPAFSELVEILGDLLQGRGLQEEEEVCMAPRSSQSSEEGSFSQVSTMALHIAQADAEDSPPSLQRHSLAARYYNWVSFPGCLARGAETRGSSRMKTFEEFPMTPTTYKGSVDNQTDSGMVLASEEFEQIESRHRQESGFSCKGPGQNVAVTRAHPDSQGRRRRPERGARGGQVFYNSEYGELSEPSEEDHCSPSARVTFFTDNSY
Chain of Vascular endothelial growth factor receptor 1 (P17948 whole entry): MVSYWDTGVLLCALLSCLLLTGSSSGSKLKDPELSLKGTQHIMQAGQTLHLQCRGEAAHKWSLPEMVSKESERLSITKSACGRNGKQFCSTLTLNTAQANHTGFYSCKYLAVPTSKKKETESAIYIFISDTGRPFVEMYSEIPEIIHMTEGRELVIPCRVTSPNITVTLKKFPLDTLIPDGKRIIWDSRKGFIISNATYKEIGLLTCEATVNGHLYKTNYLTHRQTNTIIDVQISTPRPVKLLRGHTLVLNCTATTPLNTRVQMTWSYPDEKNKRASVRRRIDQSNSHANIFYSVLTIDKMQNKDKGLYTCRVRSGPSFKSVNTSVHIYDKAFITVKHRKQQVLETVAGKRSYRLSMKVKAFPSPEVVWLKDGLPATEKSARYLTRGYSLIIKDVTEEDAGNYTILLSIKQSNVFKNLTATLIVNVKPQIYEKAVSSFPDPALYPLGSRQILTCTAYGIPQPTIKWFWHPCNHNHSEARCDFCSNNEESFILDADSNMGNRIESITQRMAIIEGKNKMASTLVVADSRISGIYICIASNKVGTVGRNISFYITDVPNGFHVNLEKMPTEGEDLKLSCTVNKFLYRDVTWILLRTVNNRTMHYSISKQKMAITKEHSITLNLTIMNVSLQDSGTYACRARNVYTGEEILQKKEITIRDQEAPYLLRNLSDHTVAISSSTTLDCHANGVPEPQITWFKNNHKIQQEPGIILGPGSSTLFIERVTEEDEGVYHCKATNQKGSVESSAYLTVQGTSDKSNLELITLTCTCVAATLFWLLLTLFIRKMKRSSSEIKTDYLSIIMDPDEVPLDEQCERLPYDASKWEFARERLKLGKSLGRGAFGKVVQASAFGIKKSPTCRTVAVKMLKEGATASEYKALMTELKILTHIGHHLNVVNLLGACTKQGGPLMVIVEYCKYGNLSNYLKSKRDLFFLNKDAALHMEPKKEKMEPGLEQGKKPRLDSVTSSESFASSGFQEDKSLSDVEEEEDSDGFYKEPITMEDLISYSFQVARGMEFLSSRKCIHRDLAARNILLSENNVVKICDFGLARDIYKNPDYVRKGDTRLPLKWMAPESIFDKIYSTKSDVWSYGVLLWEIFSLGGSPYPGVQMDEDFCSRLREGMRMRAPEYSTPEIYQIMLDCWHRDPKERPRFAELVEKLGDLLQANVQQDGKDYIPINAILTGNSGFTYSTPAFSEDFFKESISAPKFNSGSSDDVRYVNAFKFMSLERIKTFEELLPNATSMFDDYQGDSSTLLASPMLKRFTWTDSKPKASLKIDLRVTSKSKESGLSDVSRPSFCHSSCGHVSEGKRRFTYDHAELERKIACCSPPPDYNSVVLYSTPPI

For `O=C1CCCCC/C1=C\c1ccc(OC2CCCC2)cc1`, the IC50 amounted to 71.3 µM in the assay on HepG2 [1], 26.9 µM in the assay on PC-3 and 64.7 µM in the assay with MCF7.
In the same order, the values of `CCOC(=O)C1=C(C)OC(N)=C(C#N)C1c1ccc(OC2CCCC2)cc1` (stereo unspecified) are 8 µM, 13.3 µM and 7.5 µM.
As for `COc1cc2nccc(Oc3ccc(NC(=O)C4(C(=O)Nc5ccc(F)cc5)CC4)cc3)c2cc1OC` [CABOZANTINIB], in [2], the IC50 came out at 0.006 µM.
Turning to `Cc1ccc(C(=O)/C=C/c2ccc(OC3CCCC3)cc2)cc1`, the figures for the IC50 in the assay on HepG2 [1], in the assay on PC-3 and in the assay with MCF7 were 20 µM, 17.1 µM and 36.4 µM, respectively.
In the same order, the values of `CN1CCC(=O)/C(=C/c2ccc(OC3CCCC3)cc2)C1` are 15.9 µM, 10.5 µM and 18.1 µM.
`Cc1ccc(C2=NN(c3ccccc3)C(c3ccc(OC4CCCC4)cc3)C2)cc1` (stereo unspecified): the results for the IC50 in the assay on HepG2 [1], in the assay with PC-3 and with MCF7 were 7.2 µM, 7.8 µM and 5.6 µM, respectively.
`Cc1ccc(NC(=O)C2(C(=O)Nc3ccc(C)c(Oc4ccc(C#N)cc4)c3)CC2)cc1Oc1ccc(C#N)cc1`: the Activity in the assay on Hep 3B2 stood at 2.5%; in the assay with HepG2 [3], 2%; in [4], 4.5%; in assay [5], 80%.
Turning to `O=C(Nc1ccc(Cl)cc1)Nc1ccc(Oc2ncnc3cc(F)ccc23)cc1`, the IC50 in the assay with HepG2 [6] was determined as 8.08 µM; in the assay with SMMC-7721, 10.6 µM.
In the case of `CC(=O)/C=C/c1ccc(OC2CCCC2)cc1`, the IC50 in the assay with HepG2 [1] was 27.3 µM; in the assay on PC-3, 21.8 µM; in the assay with MCF7, 40.9 µM.
In the same order, the values of `CCN1CCC(=O)/C(=C/c2ccc(OC3CCCC3)cc2)C1` are 13 µM, 9.1 µM and 13.7 µM.
In the same order, the values of `O=C1CCC/C1=C\c1ccc(OC2CCCC2)cc1` are greater than 100 µM, 94.1 µM and greater than 100 µM.
As to `O=C1CCCC/C1=C\c1ccc(OC2CCCC2)cc1`, the IC50 in the assay on HepG2 [1] came out at 55.4 µM; with PC-3, 71.1 µM; in the assay with MCF7 it was 49.4 µM.
For the compound `COc1cc2nccc(Oc3ccc(NC(=O)NC4CC4)c(Cl)c3)c2cc1C(N)=O` [LENVATINIB], the IC50 in [7] is 0.022 µM.
`O=C(Nc1ccc(-n2ncc3c(Br)cccc32)cc1)Nc1ccc(Cl)c(C(F)(F)F)c1` gave an IC50 with M21 of 3.43 µM.
Turning to `O=C(Nc1ccc(-n2ncc3cc(C(F)(F)F)ccc32)cc1)Nc1ccc(C(F)(F)F)cc1`, in the assay with PLC, inhibition was half-maximal at 4.34 µM (IC50).
Regarding `Cc1ccc(NC(=O)Nc2ccc(C)c(Oc3ccc(C#N)cc3)c2)cc1Oc1ccc(C#N)cc1`, the Activity is 17.5% with Hep 3B2, 22.5% with HepG2 [3], 17.5% in assay [4] and 40% in [5].
